“And” between values parts separate entries of the source, which are not always exact repeats. Identical values can stand only once.

Type in all cases: binding
The target of assay [1] is T1, ~100 representative kinases (Homo sapiens, UniProt P78368).
T1 construct: Recombinant protein kinase domains with a concentration of 2 μM
Nature of the assay: DSF 100 kinase selectivity screen.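 Note: compound tested at 20 µM.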 To be noted: Protein CSNK1G2; average of three replicates. The essentials:
(§1)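 Each kinase domain, at 2 μM, is mixed with 20 μM test compound and SYPRO Orange in Hepes (20 mM, pH 7.5) with 500 mM NaCl. Temperature is then raised at 3°C/min and fluorescence-monitored unfolding yields the melting temperature change, ΔTm in degrees Celsius.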

Assay [2] concerns the target T2, LRRK2^KW (Homo sapiens, UniProt Q5S007).
T2 construct: LRRK2 R1847 to E2527; His6-Z-tag (TEV cleavable) (N, cleaved yes); host or cells: Sf9 insect cells (baculovirus)
T2 sequence (Q5S007 1847-2527): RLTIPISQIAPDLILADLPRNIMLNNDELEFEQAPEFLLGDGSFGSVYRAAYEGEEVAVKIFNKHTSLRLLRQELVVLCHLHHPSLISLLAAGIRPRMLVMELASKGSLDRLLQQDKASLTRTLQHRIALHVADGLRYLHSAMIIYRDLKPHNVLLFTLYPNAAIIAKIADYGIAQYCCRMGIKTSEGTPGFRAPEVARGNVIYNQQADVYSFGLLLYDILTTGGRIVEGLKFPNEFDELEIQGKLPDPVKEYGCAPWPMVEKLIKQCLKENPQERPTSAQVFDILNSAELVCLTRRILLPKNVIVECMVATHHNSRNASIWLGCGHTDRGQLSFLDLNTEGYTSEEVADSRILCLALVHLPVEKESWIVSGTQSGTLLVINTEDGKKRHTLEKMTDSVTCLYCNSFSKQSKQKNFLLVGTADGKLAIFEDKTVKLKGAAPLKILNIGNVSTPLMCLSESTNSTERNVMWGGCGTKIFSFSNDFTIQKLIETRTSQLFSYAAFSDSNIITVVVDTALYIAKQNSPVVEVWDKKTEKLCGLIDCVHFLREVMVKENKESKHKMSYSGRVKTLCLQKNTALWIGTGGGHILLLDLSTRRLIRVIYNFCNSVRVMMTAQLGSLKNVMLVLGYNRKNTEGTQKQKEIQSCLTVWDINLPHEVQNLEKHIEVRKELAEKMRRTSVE
Nature of the assay: DSF thermal stabilization of LRRK2^KW. To be noted: for ∆Tm (K): DSF, LRRK2^KW, 10 μM inhibitor. In short, it runs like this: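 DSF on 4 μM LRRK2^KW in 20 mM Hepes pH 7.4, 150 mM NaCl, 0.5 mM TCEP, 0.5% glycerol, 20 μM GDP, 2.5 mM MgCl2 with SYPRO Orange; inhibitor at 10 μM. Tm was taken as the minimum of the first derivative of fluorescence versus temperature, relative to control.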

Assay [3] addresses T3, ~100 representative kinases (Homo sapiens, UniProt Q96GD4).
T3 construct: Recombinant protein kinase domains with a concentration of 2 μM
Description: DSF 100 kinase selectivity screen.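 Note: compound tested at 20 µM.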 To be noted: Protein AURKB; average of three replicates. In short, it runs like this:
as §1

Assay [4] deals with T4, ~100 representative kinases (Homo sapiens, UniProt O75385).
T4 construct: Recombinant protein kinase domains with a concentration of 2 μM
T4 sequence (O75385 1-1050): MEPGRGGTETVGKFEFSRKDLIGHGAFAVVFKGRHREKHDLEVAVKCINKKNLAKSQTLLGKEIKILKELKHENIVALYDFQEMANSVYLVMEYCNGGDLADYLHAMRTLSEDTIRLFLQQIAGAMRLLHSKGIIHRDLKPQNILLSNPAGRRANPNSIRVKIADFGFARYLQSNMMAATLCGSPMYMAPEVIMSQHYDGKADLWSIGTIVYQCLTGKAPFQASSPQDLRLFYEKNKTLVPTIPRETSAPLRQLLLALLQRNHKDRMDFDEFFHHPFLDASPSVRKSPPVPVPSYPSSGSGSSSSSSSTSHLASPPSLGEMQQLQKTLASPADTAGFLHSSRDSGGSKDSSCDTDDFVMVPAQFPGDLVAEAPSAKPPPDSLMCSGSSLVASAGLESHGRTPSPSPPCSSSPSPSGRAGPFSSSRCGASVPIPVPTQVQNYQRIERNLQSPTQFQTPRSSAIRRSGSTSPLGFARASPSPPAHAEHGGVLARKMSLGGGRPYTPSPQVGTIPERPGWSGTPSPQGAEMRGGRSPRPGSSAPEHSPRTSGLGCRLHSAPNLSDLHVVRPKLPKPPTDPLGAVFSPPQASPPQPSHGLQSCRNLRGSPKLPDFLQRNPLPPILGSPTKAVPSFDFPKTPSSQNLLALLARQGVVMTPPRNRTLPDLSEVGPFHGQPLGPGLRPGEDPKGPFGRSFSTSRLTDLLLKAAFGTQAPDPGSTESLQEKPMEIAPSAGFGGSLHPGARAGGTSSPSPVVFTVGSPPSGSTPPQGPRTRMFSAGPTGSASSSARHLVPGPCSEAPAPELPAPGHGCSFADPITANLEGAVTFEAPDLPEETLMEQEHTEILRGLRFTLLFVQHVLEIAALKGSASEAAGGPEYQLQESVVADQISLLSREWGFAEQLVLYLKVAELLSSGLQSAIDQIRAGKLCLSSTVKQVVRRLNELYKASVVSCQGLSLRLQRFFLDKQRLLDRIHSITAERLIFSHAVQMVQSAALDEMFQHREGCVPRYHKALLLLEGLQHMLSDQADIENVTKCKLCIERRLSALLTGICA
Description: DSF 100 kinase selectivity screen.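 Note: compound tested at 20 µM.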 To be noted: Protein ULK1; DSF; average of three replicates. In short, it runs like this:
as §1

The target of assay [5] is T5, ~100 representative kinases (Homo sapiens, UniProt P22607).
T5 construct: Recombinant protein kinase domains with a concentration of 2 μM
T5 sequence (P22607 23-806): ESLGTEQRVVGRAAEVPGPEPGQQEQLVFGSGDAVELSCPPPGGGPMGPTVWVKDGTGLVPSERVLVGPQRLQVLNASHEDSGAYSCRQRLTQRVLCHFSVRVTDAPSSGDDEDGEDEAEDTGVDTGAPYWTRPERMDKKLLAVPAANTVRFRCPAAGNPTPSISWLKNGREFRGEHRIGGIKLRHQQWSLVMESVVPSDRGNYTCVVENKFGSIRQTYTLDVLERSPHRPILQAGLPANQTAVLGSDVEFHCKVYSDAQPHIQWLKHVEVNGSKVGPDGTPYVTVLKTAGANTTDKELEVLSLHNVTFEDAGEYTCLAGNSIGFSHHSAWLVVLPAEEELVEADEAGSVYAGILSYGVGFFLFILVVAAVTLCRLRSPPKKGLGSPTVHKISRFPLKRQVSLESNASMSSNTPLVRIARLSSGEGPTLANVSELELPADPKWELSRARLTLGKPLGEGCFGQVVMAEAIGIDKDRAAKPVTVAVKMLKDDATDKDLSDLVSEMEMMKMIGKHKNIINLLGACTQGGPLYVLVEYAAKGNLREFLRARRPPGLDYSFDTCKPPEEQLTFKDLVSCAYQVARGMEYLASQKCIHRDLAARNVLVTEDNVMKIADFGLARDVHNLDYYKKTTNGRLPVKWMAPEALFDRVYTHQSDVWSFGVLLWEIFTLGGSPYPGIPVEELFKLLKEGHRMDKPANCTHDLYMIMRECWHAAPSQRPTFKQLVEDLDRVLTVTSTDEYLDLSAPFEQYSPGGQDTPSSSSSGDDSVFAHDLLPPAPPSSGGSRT
Nature of the assay: DSF 100 kinase selectivity screen.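 Note: compound tested at 20 µM.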 To be noted: protein FGFR3; average of three replicates. In short, it runs like this:
as §1

T1 sequence (P78368 whole entry, the tested form may be a part): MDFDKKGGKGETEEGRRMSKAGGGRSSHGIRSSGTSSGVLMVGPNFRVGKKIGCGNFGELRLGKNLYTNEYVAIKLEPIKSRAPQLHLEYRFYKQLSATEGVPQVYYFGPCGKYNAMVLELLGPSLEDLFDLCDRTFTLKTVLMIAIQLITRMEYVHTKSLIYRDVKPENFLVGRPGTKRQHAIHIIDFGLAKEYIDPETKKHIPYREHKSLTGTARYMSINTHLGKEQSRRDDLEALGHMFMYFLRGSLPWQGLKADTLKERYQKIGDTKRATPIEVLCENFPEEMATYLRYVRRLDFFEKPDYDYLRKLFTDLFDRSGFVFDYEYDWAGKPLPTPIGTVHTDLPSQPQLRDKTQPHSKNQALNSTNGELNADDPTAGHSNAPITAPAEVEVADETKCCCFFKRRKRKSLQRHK
T3 sequence (Q96GD4 whole entry, the tested form may be a part): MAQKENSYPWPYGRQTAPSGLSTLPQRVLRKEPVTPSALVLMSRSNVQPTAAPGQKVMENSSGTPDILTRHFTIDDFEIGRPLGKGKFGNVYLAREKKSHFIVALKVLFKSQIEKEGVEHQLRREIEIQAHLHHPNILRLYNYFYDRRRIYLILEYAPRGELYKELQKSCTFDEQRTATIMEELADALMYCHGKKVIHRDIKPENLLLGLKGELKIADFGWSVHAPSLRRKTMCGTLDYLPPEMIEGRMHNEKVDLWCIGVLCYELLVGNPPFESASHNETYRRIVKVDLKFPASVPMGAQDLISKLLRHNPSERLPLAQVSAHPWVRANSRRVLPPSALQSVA

`O=C(Nc1ccc(F)cc1)C1(C(=O)Nc2cccc(-c3c[nH]c4ncnc(N5CCOCC5)c34)c2)CC1` [Compound 2] gave a dTm in assay [1] of 0.45 K.

Take `O=C(Nc1cccc(-c2c[nH]c3ncnc(N4CCOCC4)c23)c1)c1cccn(-c2ccc(F)cc2)c1=O` [Compound 4]: in assay [2], the “∆Tm (K)” value was determined as 13.0 K. In addition, the dTm in assay [1] is on record as 0.40 K.

For `O=C(Nc1ccccc1)C1(C(=O)Nc2cccc(-c3c[nH]c4ncnc(N5CCOCC5)c34)c2)CC1` [Compound 12], the “∆Tm (K)” value in assay [2] was 9.3 K. The molecule further had a dTm in assay [1] of 0.39 K.

As for `O=C(Nc1ccc(Cl)cc1)C1(C(=O)Nc2cccc(-c3c[nH]c4ncnc(N5CCOCC5)c34)c2)CC1` [Compound 13], in assay [2], the “∆Tm (K)” value is on record as 9.5 K. The same molecule had a dTm in assay [1] of 0.51 K.

As to `Cc1ccc(NC(=O)C2(C(=O)Nc3cccc(-c4c[nH]c5ncnc(N6CCOCC6)c45)c3)CC2)cc1` [Compound 14], the “∆Tm (K)” value in assay [2] was determined as 9.1 K. The molecule also displayed a dTm in assay [1] of 0.81 K.

In the case of `CCc1ccc(NC(=O)C2(C(=O)Nc3cccc(-c4c[nH]c5ncnc(N6CCOCC6)c45)c3)CC2)cc1` [Compound 15], the “∆Tm (K)” value in assay [2] is on record as 9.1 K. Also, in assay [1], the dTm is listed as 0.60 K.

`COc1ccc(NC(=O)C2(C(=O)Nc3cccc(-c4c[nH]c5ncnc(N6CCOCC6)c45)c3)CC2)cc1` [Compound 16]: the “∆Tm (K)” value in assay [2] was 4.3 K. Besides, in assay [1], the dTm came out at 0.71 K.

Consider `O=C(Nc1cccc(-c2c[nH]c3ncnc(N4CCOCC4)c23)c1)C1(C(=O)Nc2ccc(F)c(F)c2)CC1` [Compound 17], for which the “∆Tm (K)” value in assay [2] is reported as 10.3 K. The same molecule returned a dTm in assay [1] of 0.36 K.

Turning to `O=C(Nc1cccc(-c2c[nH]c3ncnc(N4CCOCC4)c23)c1)C1(C(=O)Nc2ccc(F)c(Cl)c2)CC1` [Compound 18], in assay [2], the “∆Tm (K)” value was found to be 12.3 K. Moreover, the dTm in assay [1] was 0.27 K.

On to `Cc1cc(NC(=O)C2(C(=O)Nc3cccc(-c4c[nH]c5ncnc(N6CCOCC6)c45)c3)CC2)ccc1F` [Compound 20], for which the “∆Tm (K)” value in assay [2] turned out to be 13.3 K. In assay [1], this molecule gave a dTm of 0.39 K.

Take `COc1cc(NC(=O)C2(C(=O)Nc3cccc(-c4c[nH]c5ncnc(N6CCOCC6)c45)c3)CC2)ccc1F` [Compound 21]: the “∆Tm (K)” value in assay [2] is listed as 9.3 K. For the same molecule, in assay [1], the dTm turned out to be 0.57 K.

As for `O=C(Nc1cccc(-c2c[nH]c3ncnc(N4CCOCC4)c23)c1)C1(C(=O)Nc2ccc(F)cc2F)CC1` [Compound 23], the “∆Tm (K)” value in assay [2] is given as 9.2 K. This molecule also came in with a dTm in assay [1] of 0.54 K.

On to `Cc1cc(F)ccc1NC(=O)C1(C(=O)Nc2cccc(-c3c[nH]c4ncnc(N5CCOCC5)c34)c2)CC1` [Compound 24], for which the “∆Tm (K)” value in assay [2] is listed as 8.5 K. For the same molecule, the dTm in assay [1] is given as 0.62 K.

As for `CC(C)(C)c1cc(NC(=O)Nc2cccc(-c3c[nH]c4ncnc(N5CCOCC5)c34)c2)n(-c2ccc3ncccc3c2)n1` [Compound 28], the “∆Tm (K)” value in assay [2] was determined as 20.0 K. This molecule also showed a dTm in assay [1] of 0.05 K.

As for `Cc1ccc(-n2nc(C(C)(C)C)cc2NC(=O)Nc2cccc(-c3c[nH]c4ncnc(N5CCOCC5)c34)c2)cc1` [Compound 29], in assay [2], the “∆Tm (K)” value amounted to 21.0 K. Also, the results for the dTm in assay [3] and in assay [4] were 3.15 K and 10.70 K, respectively.

As for `Cc1ccc(-n2nc(C(C)(C)C)cc2NC(=O)Nc2cccc(-c3c[nH]c4nc(Cl)nc(N5CCOCC5)c34)c2)cc1` [Compound 30], the “∆Tm (K)” value is 18.0 K in assay [2] (listed as 30 (RN277)) and 18 K in assay [2] (listed as RN277). The dTm in assay [3] was -0.56 K; in assay [4], 2.91 K.

Turning to `CC(=O)N1CCN(c2nc(Cl)nc3[nH]cc(-c4cccc(NC(=O)Nc5cc(C(C)(C)C)nn5-c5ccc(C)cc5)c4)c23)CC1` [Compound 31], in assay [2], the “∆Tm (K)” value came out at 18.0 K. Moreover, the dTm in assay [3] is on record as -1.00 K; in assay [4], 2.80 K.

With `CCSc1nc(NC)c2c(-c3cccc(NC(=O)Nc4cc(C(C)(C)C)nn4-c4ccc(C)cc4)c3)c[nH]c2n1` [Compound 32], the “∆Tm (K)” value amounted to 19.9 K in assay [2] (listed as 32 (RN341)) and 20 K in assay [2] (listed as RN341). The figures for the dTm in assay [3] and in assay [4] were 0.28 K and 0.62 K, respectively.

Regarding `COc1cc(C(=O)N2CCOCC2)c(F)cc1Nc1nc(N(C)C)c2c(Cl)c[nH]c2n1` [Compound 36], the “∆Tm (K)” value in assay [2] is reported as 16.0 K. Moreover, the figures for the dTm in assay [3] and in assay [4] were 1.54 K and -0.79 K, respectively.

For `COc1cc(S(C)(=O)=O)ccc1Nc1nc(N(C)C)c2c(Cl)c[nH]c2n1` [Compound 37], the dTm is -0.0653 K in assay [3] and -0.88 K in assay [4].

Take `COc1cc2c(Oc3ccc(NC(=O)C4(C(=O)Nc5ccc(F)cc5)CC4)cc3F)ccnc2cc1OCCCN1CCOCC1` [Foretinib, reference compound]: the “∆Tm (K)” value in assay [2] came out at 12.1 ± 0.1 K. Besides, the “dTm LRRK2(KW) [K]” value in assay [2] (screen of 31 type-II inhibitors, Table S1) came out at 11.5 K. In assay [1], this molecule displayed a dTm of 0.37 K.

`CCNc1nc(Nc2cc(F)c(C(=O)N3CCOCC3)cc2OC)ncc1C(F)(F)F` [GNE-7915]: the values for the dTm in assay [5], in assay [3] and in assay [4] were 1.40 K, -1.42 K and 1.06 K, respectively.

In the case of `C[C@@H]1CN(c2cc(-c3n[nH]c4ccc(OC5(C)CC5)cc34)ncn2)C[C@H](C)O1` [MLi2], the dTm in assay [5] is listed as 0.31 K; in assay [3], -0.83 K; in assay [4], 0.01 K.

On to `Cn1cc(-c2c[nH]c3ncnc(N4CCOCC4)c23)cc1C#N` [PFE-360], for which the dTm worked out at 2.13 K in assay [5], 2.36 K in assay [3] and 1.48 K in assay [4].

Take `Cc1ccc(C(=O)Nc2ccc(CN3CCN(C)CC3)c(C(F)(F)F)c2)cc1C#Cc1cnc2cccnn12` [Ponatinib, reference compound]: the “∆Tm (K)” value in assay [2] worked out at 13.0 K. For the same molecule, the dTm was 14.03 K in assay [5] and 0.49 K in assay [3].

`CNC(=O)c1cc(Oc2ccc(NC(=O)Nc3cc(C(C)(C)C)nn3-c3ccc4ncccc4c3)c(F)c2)ccn1` [Rebastinib, reference compound]: in assay [2], the “∆Tm (K)” value is 18.5 K and 18.5 ± 0.7 K. For the same molecule, the results for the dTm in assay [3] and in assay [4] were 1.16 K and 5.73 K, respectively.

`CN[C@@H]1C[C@H]2O[C@@](C)([C@@H]1OC)n1c3ccccc3c3c4c(c5c6ccccc6n2c5c31)C(=O)NC4` [Staurosporine]: the dTm in assay [4] was 14.02 K.

The values are drawn from article PMC12136037, “Type II kinase inhibitors that target Parkinson’s disease–associated LRRK2” (Science Advances, 2025).
